pIC50: −log10 of the molar value.
Target: T1, CCR1 (Homo sapiens, UniProt P32246)
T1 construct: a monocytic derived cell line that endogenously expresses CCR1; host or cells: THP-1 cells
T1 sequence (P32246 1-355): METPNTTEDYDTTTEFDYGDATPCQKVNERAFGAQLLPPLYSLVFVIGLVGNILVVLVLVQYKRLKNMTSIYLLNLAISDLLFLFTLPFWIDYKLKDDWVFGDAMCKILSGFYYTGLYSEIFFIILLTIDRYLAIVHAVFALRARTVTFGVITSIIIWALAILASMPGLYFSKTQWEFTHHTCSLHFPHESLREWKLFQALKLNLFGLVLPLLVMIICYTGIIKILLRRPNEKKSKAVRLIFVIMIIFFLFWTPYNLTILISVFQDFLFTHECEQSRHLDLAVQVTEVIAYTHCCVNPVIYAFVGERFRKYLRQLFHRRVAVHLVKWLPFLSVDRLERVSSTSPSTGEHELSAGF
Experiment: CCR1 inhibition (THP-1 FLIPR assay / THP-1 whole cell radioligand binding assay; the patent does not say which gave the values)
Format: cell-based
Settings: threshold list, less than 100 nm; compounds of Table 1; read-out: inhibitory activity
Experimental: The primary screening assay is a FLIPR® (Fluorometric Imaging Plate Reader, available from Molecular Devices Corporation, Sunnyvale, Calif.) assay using THP-1 cells (ATCC, Catalog No. TIB 202), a monocytic derived cell line that endogenously expresses CCR1.
The cells were resuspended at 1×10^6 cells/ml in dye loading media (growth media (RPMI+10% FBS (Fetal Bovine serum)+5.5×10^−5M 2-mercaptoethanol)+10 mM HEPES (N-2-hydroxyethylpiperazine-N′-2-ethane-sulfonic acid)+2.5 mM probenecid+fluo-3 (1:250)). The cells were incubated for 1 hour at 37° C. and then washed in FLIPR wash buffer (100 mL 10× HBSS (Hanks Buffered Saline Solution) (w/Ca++/Mg++)+20 mL 1M HEPES+1 g BSA+10 mL 250 mM probenecid+water (to make 1 L)) and plated at 50,000 cells/well in black/clear 384 well plates. The plates were transferred to FLIPR where the ability of different concentrations of compounds to inhibit RANTES induced calcium flux was assessed. Inhibition of the CCR1 response was reflected by a decrease of the fluorescence signal relative to the positive controls (RANTES alone).
THP-1 Whole Cell Radioligand Binding Assay
The cells were washed with PBS (phosphate buffered saline) and resuspended in binding buffer (10 mM HEPES pH 7.2, 1× HBSS (w/Ca^2+, Mg^2+) 0.5% BSA, 0.02% Na-azide) at 4×10^6 cells/ml (for 200, 000 cells/well). Cells were incubated with 0.1 to 0.2 nM [^125I]-labeled MIP-1α with or without unlabeled competitor (MIP-1α) or various concentrations of compounds for 60 minutes at room temperature. The assay was terminated by vacuum filtration through glass fiber filters (GF/B, Packard) which were presoaked in 0.3% polyethyleneimine. The filters were washed with wash buffer (10 mM HEPES, pH 7.2, 1 mM CaCl2, 5 mM MgCl2 0.5M NaCl), dried and the amount of bound radioactivity was determined by scintillation counting.

pIC50, > 7.00:
Cc1nc(C(F)(F)F)nc(N2C[C@@H](O)[C@H](N3CCN(C(=O)c4ccc(Cl)cc4)CC3)C2)c1C (stereo in doubt) [Example 119, 4-[4-(4-chlorobenzoyl)piperazin-1-yl]-1-[5,6-dimethyl-2-(trifluoromethyl)pyrimidin-4-yl]pyrrolidin-3-ol]
CCc1cc(C(F)(F)F)nc(N2C[C@@H](O)[C@H](N3CCN(C(=O)c4ccc(Cl)cc4)CC3)C2)n1 (stereo in doubt) [Example 121, 4-[4-(4-chlorobenzoyl)piperazin-1-yl]-1-[4-ethyl-6-(trifluoromethyl)pyrimidin-2-yl]pyrrolidin-3-ol]
CC(C)c1cc(C(F)(F)F)nc(N2C[C@@H](O)[C@H](N3CCN(C(=O)c4ccc(Cl)cc4)CC3)C2)n1 (stereo in doubt) [Example 123, 4-[4-(4-chlorobenzoyl)piperazin-1-yl]-1-[4-isopropyl-6-(trifluoromethyl)pyrimidin-2-yl]pyrrolidin-3-ol]
Cc1nc2ccccc2nc1N1C[C@H](O)[C@@H](N2CCN(C(=O)c3ccc(Cl)cc3)CC2)C1 (stereo in doubt) [Example 125, 4-[4-(4-chlorobenzoyl)piperazin-1-yl]-1-(3-methylquinoxalin-2-yl)pyrrolidin-3-ol]
O=C(c1ccc(Cl)cc1)N1CCN([C@H]2CN(c3cc(C(F)(F)F)c4ccccc4n3)C[C@@H]2O)CC1 (stereo in doubt) [Example 127, 4-[4-(4-chlorobenzoyl)piperazin-1-yl]-1-[4-(trifluoromethyl)quinolin-2-yl]pyrrolidin-3-ol]
O=C(c1ccc(Cl)cc1)N1CCN([C@H]2CN(c3ncnc4cc(C(F)(F)F)ccc34)C[C@@H]2O)CC1 (stereo in doubt) [Example 132, 4-[4-(4-chlorobenzoyl)piperazin-1-yl]-1-[7-(trifluoromethyl)quinazolin-4-yl]pyrrolidin-3-ol]
Cc1cc(N2C[C@@H](O)[C@H](N3CCN(C(=O)c4ccc(Cl)cc4)CC3)C2)nc(C(F)(F)F)n1 (stereo in doubt) [Example 146, 4-[4-(4-chlorobenzoyl)piperazin-1-yl]-1-[6-methyl-2-(trifluoromethyl)pyrimidin-4-yl]pyrrolidin-3-ol]
O=C(c1ccc(Cl)cc1)N1CCN([C@@H]2CN(c3ncnc4cc(Cl)c(F)cc34)C[C@H]2O)CC1 (stereo in doubt) [Example 161, 4-[4-(4-chlorobenzoyl)piperazin-1-yl]-1-(7-chloro-6-fluoroquinazolin-4-yl)pyrrolidin-3-ol]
COc1ccc2nc(C(F)(F)F)nc(N3C[C@H](O)[C@@H](N4CCN(C(=O)c5ccc(Cl)cc5)CC4)C3)c2c1 (stereo in doubt) [Example 165, 4-[4-(4-chlorobenzoyl)piperazin-1-yl]-1-[6-methoxy-2-(trifluoromethyl)quinazolin-4-yl]pyrrolidin-3-ol]
O=C(c1ccc(Cl)cc1)N1CCN([C@H]2CN(c3nc(C(F)(F)F)nc4cc(F)ccc34)C[C@@H]2O)CC1 (stereo in doubt) [Example 171, 4-[4-(4-chlorobenzoyl)piperazin-1-yl]-1-[7-fluoro-2-(trifluoromethyl)quinazolin-4-yl]pyrrolidin-3-ol]
O=C(c1ccc(Cl)cc1)N1CCN([C@H]2CN(c3nc(C(F)(F)F)nc4cccc(F)c34)C[C@@H]2O)CC1 (stereo in doubt) [Example 172, 4-[4-(4-chlorobenzoyl)piperazin-1-yl]-1-[5-fluoro-2-(trifluoromethyl)quinazolin-4-yl]pyrrolidin-3-ol]
O=C(c1ccc(Cl)cc1)N1CCN([C@H]2CN(c3nc(C(F)(F)F)nc4ccc(Cl)cc34)C[C@@H]2O)CC1 (stereo in doubt) [Example 173, 4-[4-(4-chlorobenzoyl)piperazin-1-yl]-1-[6-chloro-2-(trifluoromethyl)quinazolin-4-yl]pyrrolidin-3-ol]
Cc1ccc2nc(C(F)(F)F)nc(N3C[C@H](O)[C@@H](N4CCN(C(=O)c5ccc(Cl)cc5)CC4)C3)c2c1 (stereo in doubt) [Example 174, 4-[4-(4-chlorobenzoyl)piperazin-1-yl]-1-[6-methyl-2-(trifluoromethyl)quinazolin-4-yl]pyrrolidin-3-ol]
O=C(c1ccc(Cl)cc1)N1CCN([C@H]2CN(c3nc(C(F)(F)F)nc4cccc(Cl)c34)C[C@@H]2O)CC1 (stereo in doubt) [Example 176, 4-[4-(4-chlorobenzoyl)piperazin-1-yl]-1-[5-chloro-2-(trifluoromethyl)quinazolin-4-yl]pyrrolidin-3-ol]
O=C(c1ccc(Cl)cc1)N1CCN([C@H]2CN(c3nc(C(F)(F)F)nc4c(F)cccc34)C[C@@H]2O)CC1 (stereo in doubt) [Example 178, 4-[4-(4-chlorobenzoyl)piperazin-1-yl]-1-[8-fluoro-2-(trifluoromethyl)quinazolin-4-yl]pyrrolidin-3-ol]
O=C(c1ccc(Cl)cc1)N1CCN([C@H]2CN(c3nc(C(F)(F)F)nc4cc(F)c(F)cc34)C[C@@H]2O)CC1 (stereo in doubt) [Example 179, 4-[4-(4-chlorobenzoyl)piperazin-1-yl]-1-[6,7-difluoro-2-(trifluoromethyl)quinazolin-4-yl]pyrrolidin-3-ol]
COC(=O)c1ccc2nc(C(F)(F)F)nc(N3C[C@@H](O)[C@H](N4CCN(C(=O)c5ccc(Cl)cc5)CC4)C3)c2c1 (stereo in doubt) [Example 180, methyl 4-{3-[4-(4-chlorobenzoyl)piperazin-1-yl]-4-hydroxypyrrolidin-1-yl}-2-(trifluoromethyl)quinazoline-6-carboxylate]
O=C(O)c1ccc2nc(C(F)(F)F)nc(N3C[C@@H](O)[C@H](N4CCN(C(=O)c5ccc(Cl)cc5)CC4)C3)c2c1 (stereo in doubt) [Example 181, 4-{3-[4-(4-chlorobenzoyl)piperazin-1-yl]-4-hydroxypyrrolidin-1-yl}-2-(trifluoromethyl)quinazoline-6-carboxylic acid]
CCOc1ccc2nc(C(F)(F)F)nc(N3C[C@H](O)[C@@H](N4CCN(C(=O)c5ccc(Cl)cc5)CC4)C3)c2c1 (stereo in doubt) [Example 184, 4-[4-(4-chlorobenzoyl)piperazin-1-yl]-1-[6-ethoxy-2-(trifluoromethyl)quinazolin-4-yl]pyrrolidin-3-ol]
Nc1ccc2nc(C(F)(F)F)nc(N3C[C@H](O)[C@@H](N4CCN(C(=O)c5ccc(Cl)cc5)CC4)C3)c2c1 (stereo in doubt) [Example 186, 1-[6-amino-2-(trifluoromethyl)quinazolin-4-yl]-4-[4-(4-chlorobenzoyl)piperazin-1-yl]pyrrolidin-3-ol]
CN(C)c1ccc2nc(C(F)(F)F)nc(N3C[C@H](O)[C@@H](N4CCN(C(=O)c5ccc(Cl)cc5)CC4)C3)c2c1 (stereo in doubt) [Example 187, 4-[4-(4-chlorobenzoyl)piperazin-1-yl]-1-[6-(dimethylamino)-2-(trifluoromethyl)quinazolin-4-yl]pyrrolidin-3-ol]
O=C(c1ccc(Cl)cc1)N1CCN([C@H]2CN(c3nc(C(F)(F)F)nc4ccc([N+](=O)[O-])cc34)C[C@@H]2O)CC1 (stereo in doubt) [Example 188, 4-[4-(4-chlorobenzoyl)piperazin-1-yl]-1-[6-nitro-2-(trifluoromethyl)quinazolin-4-yl]pyrrolidin-3-ol]
COC(=O)Nc1ccc2nc(C(F)(F)F)nc(N3C[C@H](O)[C@@H](N4CCN(C(=O)c5ccc(Cl)cc5)CC4)C3)c2c1 (stereo in doubt) [Example 190, methyl [4-{3-[4-(4-chlorobenzoyl)piperazin-1-yl]-4-hydroxypyrrolidin-1-yl}-2-(trifluoromethyl)quinazolin-6-yl]carbamate]
NC(=O)Nc1ccc2nc(C(F)(F)F)nc(N3C[C@H](O)[C@@H](N4CCN(C(=O)c5ccc(Cl)cc5)CC4)C3)c2c1 (stereo in doubt) [Example 194, N-[4-{3-[4-(4-chlorobenzoyl)piperazin-1-yl]-4-hydroxypyrrolidin-1-yl}-2-(trifluoromethyl)quinazolin-6-yl]urea]
